Our source for the inhibition and IC50 values is patent US10030020B2, “Spirocycle compounds and methods of making and using same” (Abide Therapeutics, Inc., priority 2016, dated 2018).

Assay type in all cases: biochemical
One experiment deals with FAAH (Mus musculus (Mouse), UniProt O08914). Briefly: In vitro competitive activity-based protein profiling (mouse brain membrane fraction or cell lysates), FAAH band. As to conditions: mouse proteome; for inhibition at 1 µM: read-out: FAAH % Inh 1 μM (mouse); for IC50: competitive ABPP. In outline:
(§1)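 Competitive ABPP: proteome 1.0 mg/mL protein + inhibitor, 30 min, 37° C; FP-Rh probe (stock 50 μM in DMSO) added, 30 min, 37° C; SDS quench, SDS-PAGE, fluorescent band intensity read.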

A further experiment deals with ABHD6 (Mus musculus (Mouse), UniProt Q8R2Y0). Briefly: In vitro competitive activity-based protein profiling (mouse brain membrane fraction or cell lysates), ABHD6 band. To be noted: mouse proteome; for inhibition at 1 µM: read-out: ABHD6 % Inh 1 μM (mouse); for IC50: competitive ABPP. In outline: as §1
ABHD6, sequence (Q8R2Y0 whole entry): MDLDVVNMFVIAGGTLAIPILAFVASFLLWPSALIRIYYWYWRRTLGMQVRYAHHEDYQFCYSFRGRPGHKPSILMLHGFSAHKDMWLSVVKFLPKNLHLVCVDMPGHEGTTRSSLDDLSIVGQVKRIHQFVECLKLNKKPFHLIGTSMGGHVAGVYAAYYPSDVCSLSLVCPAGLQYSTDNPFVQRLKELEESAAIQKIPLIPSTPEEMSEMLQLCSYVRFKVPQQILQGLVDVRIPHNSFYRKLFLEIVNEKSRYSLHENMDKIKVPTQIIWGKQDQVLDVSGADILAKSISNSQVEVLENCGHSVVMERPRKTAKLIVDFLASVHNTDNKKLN
A further experiment concerns the target MAGL (Mus musculus (Mouse), UniProt O35678). Briefly: In vitro competitive activity-based protein profiling (mouse brain membrane fraction or cell lysates), MAGL band. To be noted: mouse proteome; for inhibition at 1 µM: read-out: MAGL % Inh 1 μM (mouse); for IC50: competitive ABPP. As to the method: In Vitro Competitive Activity-Based Protein Profiling.
Proteomes (mouse brain membrane fraction or cell lysates) (50 μL, 1.0 mg/mL total protein concentration) were preincubated with varying concentrations of inhibitors at 37° C. After 30 min, FP—Rh (1.0 μL, 50 μM in DMSO) was added and the mixture was incubated for another 30 min at 37° C. Reactions were quenched with SDS loading buffer (50 μL-4×) and run on SDS-PAGE.

MAGL, sequence (O35678 whole entry): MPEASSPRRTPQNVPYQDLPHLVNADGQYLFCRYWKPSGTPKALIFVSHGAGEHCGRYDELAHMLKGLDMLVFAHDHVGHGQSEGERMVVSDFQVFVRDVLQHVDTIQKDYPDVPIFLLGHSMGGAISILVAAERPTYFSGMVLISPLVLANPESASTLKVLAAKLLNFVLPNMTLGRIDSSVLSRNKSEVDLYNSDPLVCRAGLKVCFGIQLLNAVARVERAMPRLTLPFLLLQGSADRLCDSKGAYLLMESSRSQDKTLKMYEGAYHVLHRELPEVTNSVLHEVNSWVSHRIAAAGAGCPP
FAAH, sequence (O08914 whole entry): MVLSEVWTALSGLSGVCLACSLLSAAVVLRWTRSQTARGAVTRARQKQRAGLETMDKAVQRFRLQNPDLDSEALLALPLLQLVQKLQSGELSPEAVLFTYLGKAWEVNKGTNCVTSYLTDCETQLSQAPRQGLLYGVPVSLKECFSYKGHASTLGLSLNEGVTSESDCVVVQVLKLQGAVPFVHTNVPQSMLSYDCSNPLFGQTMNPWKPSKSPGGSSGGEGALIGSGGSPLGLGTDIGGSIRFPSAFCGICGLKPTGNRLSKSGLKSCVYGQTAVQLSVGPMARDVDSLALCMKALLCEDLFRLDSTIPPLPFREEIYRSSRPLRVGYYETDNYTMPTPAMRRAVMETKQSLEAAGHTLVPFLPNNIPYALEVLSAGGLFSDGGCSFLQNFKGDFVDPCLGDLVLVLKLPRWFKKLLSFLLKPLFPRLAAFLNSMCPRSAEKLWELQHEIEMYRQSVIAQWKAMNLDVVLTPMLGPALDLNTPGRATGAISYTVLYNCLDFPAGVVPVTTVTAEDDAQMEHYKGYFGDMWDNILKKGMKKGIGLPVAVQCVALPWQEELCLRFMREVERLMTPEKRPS

Turning to `O=C(OC(C(F)(F)F)C(F)(F)F)N1CCC2(CCN(Cc3ccc(N4CCCC4)c(C(F)(F)F)c3)C2)CC1` [Example 141, 1,1,1,3,3,3-Hexafluoropropan-2-yl 2-(4-(pyrrolidin-1-yl)-3-(trifluoromethyl)benzyl)-2,8-diazaspiro[4.5]decane-8-carboxylate], the inhibition at 1 µM on FAAH was below 25%; at ABHD6 it was at least 75%; at MAGL it was above 75%. The values for the half-inhibitory concentration (IC50) on FAAH, at ABHD6 and at MAGL were above 1000 nM, 100 to 1000 nM and 100 to 1000 nM, respectively.
Regarding `CC(=O)N1CCCc2cccc(CN3CCCC34CCN(C(=O)OC(C(F)(F)F)C(F)(F)F)CC4)c21` [Example 142, 1,1,1,3,3,3-Hexafluoropropan-2-yl 1-((1-acetyl-1,2,3,4-tetrahydroquinolin-8-yl)methyl)-1,8-diazaspiro[4.5]decane-8-carboxylate], the inhibition at 1 µM was below 25% on FAAH, below 25% on ABHD6 and above 75% at MAGL. In addition, the IC50 on FAAH was above 1000 nM; at ABHD6, above 1000 nM; on MAGL it was 100 to 1000 nM.
Consider `CS(=O)(=O)N1CCCc2cccc(CN3CCCC34CCN(C(=O)OC(C(F)(F)F)C(F)(F)F)CC4)c21` [Example 143, 1,1,1,3,3,3-Hexafluoropropan-2-yl 1-((1-methanesulfonyl-1,2,3,4-tetrahydroquinolin-8-yl)methyl)-1,8-diazaspiro[4.5]decane-8-carboxylate], for which the figures for the inhibition at 1 µM on FAAH, at ABHD6 and at MAGL were below 25%, below 25% and above 75%, respectively. The IC50 at FAAH is above 1000 nM; at ABHD6, above 1000 nM; at MAGL, below 100 nM.
In the case of `CCN1CCc2cccc(CN3CCCC34CCN(C(=O)OC(C(F)(F)F)C(F)(F)F)CC4)c2C1` [Example 144, 1,1,1,3,3,3-Hexafluoropropan-2-yl 1-((2-ethyl-1,2,3,4-tetrahydroisoquinolin-8-yl)methyl)-1,8-diazaspiro[4.5]decane-8-carboxylate], the inhibition at 1 µM at FAAH was below 25%; at ABHD6, 25 to 75%; on MAGL, above 75%. The values for the IC50 on FAAH, on ABHD6 and at MAGL were above 1000 nM, above 1000 nM and 100 to 1000 nM, respectively.
In the case of `CC(=O)N1CCc2cccc(CN3CCCC34CCN(C(=O)OC(C(F)(F)F)C(F)(F)F)CC4)c2C1` [Example 145, 1,1,1,3,3,3-Hexafluoropropan-2-yl 1-((2-acetyl-1,2,3,4-tetrahydroisoquinolin-8-yl)methyl)-1,8-diazaspiro[4.5]decane-8-carboxylate], the inhibition at 1 µM was below 25% at FAAH, below 25% at ABHD6 and above 75% at MAGL. The IC50 was above 1000 nM on FAAH, above 1000 nM on ABHD6 and below 100 nM on MAGL.
On to `CC(C)N1CCc2cccc(CN3CCCC34CCN(C(=O)OC(C(F)(F)F)C(F)(F)F)CC4)c2C1` [Example 147, 1,1,1,3,3,3-Hexafluoropropan-2-yl 1-((2-isopropyl-1,2,3,4-tetrahydroisoquinolin-8-yl)methyl)-1,8-diazaspiro[4.5]decane-8-carboxylate], for which the inhibition at 1 µM on FAAH was below 25%; on ABHD6, below 25%; on MAGL, above 75%. Besides, the results for the IC50 at FAAH, at ABHD6 and on MAGL were above 1000 nM, above 1000 nM and 100 to 1000 nM, respectively.
With `O=C(OC(C(F)(F)F)C(F)(F)F)N1CCC2(CCCN2Cc2cccc3c2CN(C2CC2)CC3)CC1` [Example 148, 1,1,1,3,3,3-Hexafluoropropan-2-yl 1-((2-cyclopropyl-1,2,3,4-tetrahydroisoquinolin-8-yl)methyl)-1,8-diazaspiro[4.5]decane-8-carboxylate], the inhibition at 1 µM is below 25% at FAAH, below 25% at ABHD6 and above 75% on MAGL. Besides, the IC50 was above 1000 nM at FAAH, above 1000 nM on ABHD6 and below 100 nM at MAGL.
In the case of `CC(C)CN1CCc2cccc(CN3CCCC34CCN(C(=O)OC(C(F)(F)F)C(F)(F)F)CC4)c2C1` [Example 149, 1,1,1,3,3,3-Hexafluoropropan-2-yl 1-((2-(2-methylpropyl)-1,2,3,4-tetrahydroisoquinolin-8-yl)methyl)-1,8-diazaspiro[4.5]decane-8-carboxylate], the inhibition at 1 µM was below 25% on FAAH, 25 to 75% at ABHD6 and above 75% at MAGL. Moreover, the IC50 on FAAH was above 1000 nM; at ABHD6, above 1000 nM; on MAGL, 100 to 1000 nM.
For the compound `O=C(OC(C(F)(F)F)C(F)(F)F)N1CCC2(CCN(Cc3ccc4c(c3)COC4)C2)CC1` [Example 153, 1,1,1,3,3,3-Hexafluoropropan-2-yl 2-((1,3-dihydroisobenzofuran-5-yl)methyl)-2,8-diazaspiro[4.5]decane-8-carboxylate], the inhibition at 1 µM at FAAH is below 25%; at ABHD6, at least 75%; at MAGL, above 75%. The IC50 on FAAH is above 1000 nM; on ABHD6, below 100 nM; on MAGL, 100 to 1000 nM.
Take `O=C(OC(C(F)(F)F)C(F)(F)F)N1CCC2(CCN(Cc3ccc(Cl)c(N4CCOCC4)c3)C2)CC1` [Example 154, 1,1,1,3,3,3-Hexafluoropropan-2-yl 2-(4-chloro-3-morpholinobenzyl)-2,8-diazaspiro[4.5]decane-8-carboxylate]: the inhibition at 1 µM is below 25% on FAAH, at least 75% at ABHD6 and above 75% on MAGL. Moreover, the IC50 on FAAH was above 1000 nM; on ABHD6, 100 to 1000 nM; at MAGL, below 100 nM.
With `O=C(OC(C(F)(F)F)C(F)(F)F)N1CCC2(CCN(Cc3ccc(Cl)c(N4CCCC4)c3)C2)CC1` [Example 155, 1,1,1,3,3,3-Hexafluoropropan-2-yl 2-(4-chloro-3-(pyrrolidin-1-yl)benzyl)-2,8-diazaspiro[4.5]decane-8-carboxylate], the inhibition at 1 µM on FAAH was below 25%; at ABHD6, at least 75%; on MAGL, above 75%. In addition, the figures for the IC50 on FAAH, at ABHD6 and on MAGL were above 1000 nM, 100 to 1000 nM and below 100 nM, respectively.
For the compound `O=C(OC(C(F)(F)F)C(F)(F)F)N1CCC2(CCN(Cc3ccc(C(F)(F)F)c(N4CCOCC4)c3)C2)CC1` [Example 156, 1,1,1,3,3,3-Hexafluoropropan-2-yl 2-(3-morpholino-4-(trifluoromethyl)benzyl)-2,8-diazaspiro[4.5]decane-8-carboxylate], the values for the inhibition at 1 µM on FAAH, at ABHD6 and at MAGL were below 25%, at least 75% and above 75%, respectively. Also, the results for the IC50 on FAAH, on ABHD6 and on MAGL were above 1000 nM, 100 to 1000 nM and below 100 nM, respectively.
Turning to `CCN1CCCc2cccc(CN3CCCC34CCN(C(=O)OC(C(F)(F)F)C(F)(F)F)CC4)c21` [Example 158, 1,1,1,3,3,3-Hexafluoropropan-2-yl 1-((1-ethyl-1,2,3,4-tetrahydroquinolin-8-yl)methyl)-1,8-diazaspiro[4.5]decane-8-carboxylate], the values for the inhibition at 1 µM at FAAH, at ABHD6 and at MAGL were below 25%, below 25% and above 75%, respectively. Besides, the concentration for half-maximal inhibition (IC50) on FAAH is above 1000 nM; on ABHD6 it was above 1000 nM; on MAGL, 100 to 1000 nM.
Consider `CCN1CCc2cccc(CN3CCC4(CCN(C(=O)OC(C(F)(F)F)C(F)(F)F)CC4)C3)c2C1` [Example 159, 1,1,1,3,3,3-Hexafluoropropan-2-yl 2-((2-ethyl-1,2,3,4-tetrahydroisoquinolin-8-yl)methyl)-2,8-diazaspiro[4.5]decane-8-carboxylate], for which the results for the inhibition at 1 µM on FAAH, at ABHD6 and at MAGL were below 25%, at least 75% and above 75%, respectively. The concentration for half-maximal inhibition (IC50) at FAAH was above 1000 nM; on ABHD6, above 1000 nM; at MAGL, below 100 nM.
In the case of `CC(=O)N1CCc2cccc(CN3CCC4(CCN(C(=O)OC(C(F)(F)F)C(F)(F)F)CC4)C3)c2C1` [Example 160, 1,1,1,3,3,3-Hexafluoropropan-2-yl 2-((2-acetyl-1,2,3,4-tetrahydroisoquinolin-8-yl)methyl)-2,8-diazaspiro[4.5]decane-8-carboxylate], the inhibition at 1 µM at FAAH was below 25%; on ABHD6 it was at least 75%; on MAGL, above 75%. For the same compound, the values for the IC50 at FAAH, on ABHD6 and at MAGL were above 1000 nM, below 100 nM and below 100 nM, respectively.
For the compound `CS(=O)(=O)N1CCc2cccc(CN3CCC4(CCN(C(=O)OC(C(F)(F)F)C(F)(F)F)CC4)C3)c2C1` [Example 161, 1,1,1,3,3,3-hexafluoropropan-2-yl 2-((2-(methylsulfonyl)-1,2,3,4-tetrahydroisoquinolin-8-yl)methyl)-2,8-diazaspiro[4.5]decane-8-carboxylate], the values for the inhibition at 1 µM at FAAH, at ABHD6 and on MAGL were below 25%, at least 75% and above 75%, respectively. Also, the IC50 at FAAH was above 1000 nM; on ABHD6 it was below 100 nM; at MAGL, below 100 nM.
Consider `CC(C)N1CCc2cccc(CN3CCC4(CCN(C(=O)OC(C(F)(F)F)C(F)(F)F)CC4)C3)c2C1` [Example 162, 1,1,1,3,3,3-Hexafluoropropan-2-yl 2-((2-isopropyl-1,2,3,4-tetrahydroisoquinolin-8-yl)methyl)-2,8-diazaspiro[4.5]decane-8-carboxylate], for which the inhibition at 1 µM at FAAH is below 25%; at ABHD6, at least 75%; at MAGL, above 75%. Further, the IC50 at FAAH is above 1000 nM; at ABHD6, 100 to 1000 nM; on MAGL it was below 100 nM.

What is called IC50 is the concentration that gives 50% inhibition. High values mean weaker potency, low ones greater potency.
